Measured values: publication PMC8151276, “An Integrated Approach toward NanoBRET Tracers for Analysis of GPCR Ligand Engagement” (Molecules, 2021)

Key:
[1] = target: T1, ADRB3 (Homo sapiens, UniProt P13945); experiment: NanoBRET screen HiBiT-ADRB3 in HEK293; type: binding
T1 construct: purchased Promega (in-house HiBiT-GPCR construct library, NanoBRET)
Protocol: (§1) Each tracer candidate was screened across the entire library of HiBiT-GPCR constructs using NanoBRET as the detection modality. As depicted in Figure 4A, the specificity of interactions was evaluated through decrease in BRET due to competitive displacement of a bound tracer by excess parental compound. Each tracer was analyzed for binding to each HiBiT-GPCR fusion in the absence and in the presence of competing parental compound. Briefly, HEK293 cells were transfected with HiBiT-GPCR constructs diluted into promoterless DNA to reduce expression and maximize translocation to the cell surface. Each tracer candidate was then screened at concentrations of 1 μM and 0.1 μM across cells expressing these fusions. Cells were treated for 1.5 h with tracer either alone or in the presence of 20 μM competing parental compound (i.e., control). BRET was measured upon addition of purified LgBiT and subsequent complementation with HiBiT genetically fused to a GPCR. The specificity of interactions was assessed through a decrease in BRET signal due to competitive displacement of the bound tracer. To further gauge the robustness of these interactions, the fold response over the control (i.e., BRETtracer/BRETcontrol) was calculated. We chose a 1.5-fold response, which translates to ≥7-fold signal over noise as the minimal threshold required to score an interaction as positive.
(§2) HiBiT-GPCR DNA constructs were diluted in 10 mM Tris pH 8 to a final concentration of 0.01 μg/μL, arrayed in 96-well plates and stored at −20 °C. For transfection, HEK293 cells were suspended in Opti-MEM (without phenol red) supplemented with 2% fetal bovine serum (Seradigm) and 100 units/mL penicillin–streptomycin (Gibco) at a final concentration of 220,000 cells/mL and dispensed into white 96-well plates at 90 μL/well. Subsequent transfections and screens were carried using an Agilent Bravo Automated Liquid Handling Platform. First, the 96-well HiBiT DNA arrays were diluted 25-fold in Opti-MEM (without serum or phenol red) to a final concentration of 0.0004 μg/μL and 20 μL of the diluted DNAs were transferred into new 96-well plates. Next, promoterless carrier DNA (1 μg/μL) was diluted 25-fold (0.04 μg/μL) and then dispensed into the diluted arrays at 20 μL/well. Following brief mixing, Viafect transfection reagent (Promega) diluted 16-fold into Opti-MEM was dispensed into the plates at 40 μL/well. After mixing by pipetting, plates were incubated for 10 min on the pipetting station deck. The DNA-transfection reagent complexes were then added to plates containing cells. To facilitate the screen, 10 μL of DNA-transfection reagent complexes were added in duplicates to the top 4 and bottom 4 rows, resulting in two identical 48-well arrays per plate. Plates with transfected cells were incubated for 18–20 h at 37 °C/5% CO2. A screen of each tracer across the entire library using two different concentrations requires duplicate plates of transfected cells. Depending on the number of tracers being screened, transfections can be scaled up using the same ratios. The next day, for each tracer, four 20× screening solutions in tracer dilution buffer (Promega) were prepared: two duplicates at final concentration of 20 μM and two duplicates at a final concentration of 2 μM. […] The four resulting solutions were diluted 4-fold in Opti-MEM without serum or phenol red to generate 5× solutions (5 µM and 0.5 µM tracer +/− 100 μM competing compound). To screen the library, a BioTek MultiFlo FX liquid dispenser was used to dispense 22.5 µL of tracer solution to the top 4 rows and 22.5 µL tracer + competing compound solution to the 4 bottom rows. Plates were briefly mixed on an orbital shaker and incubated for 1.5 h at room temperature. […] Plates were briefly mixed on an orbital shaker and incubated for 15 min to allow complementation.

[2] = target: T2, HTR1F (Homo sapiens, UniProt P30939); experiment: NanoBRET screen HiBiT-HTR1F in HEK293; type: binding
T2 construct: purchased Promega (in-house HiBiT-GPCR construct library, NanoBRET)
T2 sequence (P30939 1-366): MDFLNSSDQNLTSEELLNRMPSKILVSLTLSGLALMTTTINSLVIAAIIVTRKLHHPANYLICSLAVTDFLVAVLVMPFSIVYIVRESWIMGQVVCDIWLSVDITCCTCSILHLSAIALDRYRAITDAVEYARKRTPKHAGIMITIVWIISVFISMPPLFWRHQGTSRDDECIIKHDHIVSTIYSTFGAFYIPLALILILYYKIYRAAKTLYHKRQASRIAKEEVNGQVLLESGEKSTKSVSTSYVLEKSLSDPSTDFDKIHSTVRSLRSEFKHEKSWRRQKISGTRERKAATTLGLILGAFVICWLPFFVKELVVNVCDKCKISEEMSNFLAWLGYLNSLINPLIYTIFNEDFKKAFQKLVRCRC
Protocol: as §1, §2

[3] = tracer at 0.1μM, listed as amitriptyline-b-2-NB590

T1 sequence (P13945 whole entry): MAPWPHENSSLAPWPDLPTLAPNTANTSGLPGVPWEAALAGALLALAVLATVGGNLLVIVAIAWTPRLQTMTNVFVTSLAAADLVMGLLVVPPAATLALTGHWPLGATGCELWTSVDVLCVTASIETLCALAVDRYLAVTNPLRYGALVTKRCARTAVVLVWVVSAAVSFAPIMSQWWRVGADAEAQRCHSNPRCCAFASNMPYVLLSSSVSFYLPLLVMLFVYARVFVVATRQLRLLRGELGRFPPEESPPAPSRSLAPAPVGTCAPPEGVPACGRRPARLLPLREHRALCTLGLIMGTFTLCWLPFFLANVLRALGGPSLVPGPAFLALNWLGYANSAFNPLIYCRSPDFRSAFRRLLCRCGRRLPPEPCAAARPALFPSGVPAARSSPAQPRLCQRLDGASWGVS

## CCOC(=O)c1cc(C#N)c(N2CCC(C(=O)NS(=O)(=O)Cc3ccccc3/C=C/C(=O)NCCNC(=O)CCc3ccc4n3[B-](F)(F)[N+]3=C(c5ccc[nH]5)C=CC3=C4)CC2)nc1C [AZD1283-1-NB590]
[1]; ADRB3, 0.1μM
  NanoBRET Fold Response: 1.09
[1]; ADRB3, 1μM
  NanoBRET Fold Response: 1.04
[2]; HTR1F, 0.1μM
  NanoBRET Fold Response: 1.04
[2]; HTR1F, 1μM
  NanoBRET Fold Response: 1.02

## N#CN/C(=N\CCNC(=O)c1ccc(N)cc1)NCCCOc1cccc(CN2CCCCC2)c1 [Aminopotentidine (unmodified)]
[1]; ADRB3, other tracers/Aminopotentidine (unmodified), 0.1μM
  NanoBRET Fold Response: 1.02
[1]; ADRB3, other tracers/Aminopotentidine (unmodified), 1μM
  NanoBRET Fold Response: 1.10
[2]; HTR1F, other tracers/Aminopotentidine (unmodified), 0.1μM
  NanoBRET Fold Response: 1.04
[2]; HTR1F, other tracers/Aminopotentidine (unmodified), 1μM
  NanoBRET Fold Response: 1.21

## N#CN=C(NCCCOc1cccc(CN2CCCCC2)c1)NCCNC(=O)CCOCCOCCOCCOCCNC(=O)CCc1ccc2n1[B-](F)(F)[N+]1=C(c3ccc[nH]3)C=CC1=C2 [Aminopotentidine-2-NB590]
[1]; ADRB3, tracer 0.1μM
  NanoBRET Fold Response: 1.00
[1]; ADRB3, tracer 1μM
  NanoBRET Fold Response: 1.01
[2]; HTR1F, tracer 0.1μM
  NanoBRET Fold Response: 1.07
[2]; HTR1F, tracer 1μM
  NanoBRET Fold Response: 1.05

## CN(C)CCC=C1c2ccccc2CCc2ccc(C(=O)NCCNC(=O)CCOCCOCCOCCOCCNC(=O)CCc3ccc4n3[B-](F)(F)[N+]3=C(c5ccc[nH]5)C=CC3=C4)cc21 [Amitriptyline-a-2-NB590]
[1]; tracer at 0.1μM
  NanoBRET Fold Response: 0.95
[1]; tracer at 1μM
  NanoBRET Fold Response: 0.99
[2]; tracer at 0.1μM
  NanoBRET Fold Response: 0.97
[2]; tracer at 1μM
  NanoBRET Fold Response: 1.02

## CN(C)CCC=C1c2ccccc2CCc2ccc(C(=O)NCCNC(=O)CCOCCOCCOCCOCCNC(=O)CCc3ccc4n3[B-](F)(F)[N+]3=C(c5ccc[nH]5)C=CC3=C4)cc21 [Amitriptyline-b-2-NB590]
[1]; [3]
  NanoBRET Fold Response: 1.15
[1]; tracer at 1μM, listed as amitriptyline-b-2-NB590
  NanoBRET Fold Response: 1.02
[2]; [3]
  NanoBRET Fold Response: 1.43

## CN(CCC=C1c2ccccc2CCc2ccccc21)C(=O)CCOCCOCCOCCOCCNC(=O)CCc1ccc2n1[B-](F)(F)[N+]1=C(c3ccc[nH]3)C=CC1=C2 [Amitriptyline-e-2-NB590]
[1]; tracer at 1μM
  NanoBRET Fold Response: 1.01
[2]; tracer at 1μM
  NanoBRET Fold Response: 1.02

## COc1ccc2c(n1)c(CCNC(C)=O)cn2CCNC(=O)CCc1ccc2n1[B-](F)(F)[N+]1=C(c3ccc[nH]3)C=CC1=C2 [Azamelatonin-1-NB590]
[1]; 0.1μM tracer
  NanoBRET Fold Response: 1.01
[1]; 1μM tracer
  NanoBRET Fold Response: 1.06
[2]; 0.1μM tracer
  NanoBRET Fold Response: 0.79
[2]; 1μM tracer
  NanoBRET Fold Response: 0.79

## COc1ccc2[nH]c(-c3ccc(CNC(=O)CCOCCOCCOCCOCCNC(=O)CCc4ccc5n4[B-](F)(F)[N+]4=C(c6ccc[nH]6)C=CC4=C5)cc3)c(CCNC(C)=O)c2n1 [AzomelatoninICO9-2-NB590]
[1]; 0.1μM tracer
  NanoBRET Fold Response: 1.00
[1]; 1μM tracer
  NanoBRET Fold Response: 1.11
[2]; 0.1μM tracer
  NanoBRET Fold Response: 0.92
[2]; 1μM tracer
  NanoBRET Fold Response: 0.95

## O=C(CCOCCOCCOCCOCCNC(=O)CCc1ccc2n1[B-](F)(F)[N+]1=C(c3ccc[nH]3)C=CC1=C2)NCCCN1CCN(C2=Nc3cc(Cl)ccc3Nc3ccccc32)CC1 [Clozapine-a-2-NB590]
[1]; ADRB3, 0.1μM tracer
  NanoBRET Fold Response: 0.97
[1]; ADRB3, 1μM tracer
  NanoBRET Fold Response: 0.99
[2]; HTR1F, 0.1μM tracer
  NanoBRET Fold Response: 1.77
[2]; HTR1F, 1μM tracer
  NanoBRET Fold Response: 2.34

## CN1CCN(C2=Nc3cc(Cl)ccc3Nc3ccc(CNC(=O)CCOCCOCCOCCOCCNC(=O)CCc4ccc5n4[B-](F)(F)[N+]4=C(c6ccc[nH]6)C=CC4=C5)cc32)CC1 [Clozapine-b-2-NB590]
[1]; ADRB3, 0.1μM tracer
  NanoBRET Fold Response: 1.01
[1]; ADRB3, 1μM tracer
  NanoBRET Fold Response: 0.98
[2]; HTR1F, 0.1μM tracer
  NanoBRET Fold Response: 1.00
[2]; HTR1F, 1μM tracer
  NanoBRET Fold Response: 1.28
